Test results taken from publication PMC12217481, “Structure and mechanism of taniborbactam inhibition of the cefepime-hydrolyzing, partial R2-loop deletion Pseudomonas-derived cephalosporinase variant PDC-88” (Antimicrobial Agents and Chemotherapy, 2025).

Assays:
PDC-88 [1] = target: T1, PDC-88 (Pseudomonas aeruginosa, UniProt P24735, DEL316-317/G27D/G391A/T105A/V205L/V356I); type: binding
T1 construct: NdeI 5′-[…]-3ʹ and BamHI 5ʹ-[…]-3ʹ; His tag removed) (N); made in house; host or cells: E. coli BL21-CodonPlus (DE3)-RP, pET24a(+)
Protocol: Circular dichroism (CD) melting curve experiments were conducted using a J-815 spectropolarimeter (Jasco) and a Peltier effect temperature controller. Suprasil quartz cuvettes with a 0.1 cm path length (Hellma Analytics) were used in all experiments. […] Equilibrium constants were calculated, and the melting temperature, Tm, was calculated from equilibrium denaturation data as previously described ([28]).

[2] = test system: isogenic E. coli strains expressing PDC R2-loop deletion variants (PDC-88 to PDC-92); test: MIC changes across the five isogenic E. coli R2-loop deletion strains; type: cell-based, Escherichia coli; details: R2-loop deletion variant strains
Protocol: Modal broth microdilution MICs (or median broth microdilution MICs where appropriate) were determined in accordance with Clinical and Laboratory Standards Institute (CLSI) M07 guidelines ([43]). Isogenic E. coli DH10B cells expressing the abovementioned plasmid-encoded PDC constructs were used. […] CLSI quality control strains Escherichia coli NCTC 13353, E. coli ATCC 35218, and Klebsiella pneumoniae ATCC 700603 were used during testing ([24]).

PDC-3 [3] = target: T2, PDC-3 (Pseudomonas aeruginosa, UniProt P24735, T105A); test: Thermal denaturation by circular dichroism, PDC-3; type: binding
T2 construct: The PDC-3 expression construct was created in a similar manner but starting with a previously described pBC SK(−) vector; made in house; host or cells: E. coli BL21-CodonPlus (DE3)-RP, pET24a(+)
Protocol: Competitive enzyme inhibitors can increase enzyme thermal stability as a result of binding to the active site.
Circular dichroism (CD) melting curve experiments were conducted using a J-815 spectropolarimeter (Jasco) and a Peltier effect temperature controller. Suprasil quartz cuvettes with a 0.1 cm path length (Hellma Analytics) were used in all experiments. […] Two-state behavior was observed, as indicated by identical curves at each wavelength. Equilibrium constants were calculated, and the melting temperature, Tm, was calculated from equilibrium denaturation data as previously described ([28]).

NDM-1 = test system: NDM-1; parameters: method as in PMID 22005056; details: cited from earlier work
PDC-88 [4] = target: T1, PDC-88; test: Timed ESI-MS of acyl-enzyme formation, PDC-88; type: biochemical
Protocol: (§1) Timed ESI-MS experiments allow tracking of the reaction over time and determination of product modification, enabling the elucidation of mechanistic detail. Time courses were collected for both PDC-3 and PDC-88 with FEP (Fig. 4), CAZ (Fig. S1), TOL (Fig. S2), and ATM (Fig. S3). Substrate modification (here, loss of the R2 group) was determined based on differences between masses of apo and acyl-enzyme peaks (Fig. S4). […] Based on the differences in mass between the apo enzyme peaks, the acyl-enzyme peaks, and the molecular masses of each substrate, the mass of the adducts was determined and used to predict any portion of the substrate molecule that might be lost during the reaction (Fig. S4). As expected ([26][–][28]), all three cephalosporin antibiotics (FEP, CAZ, and TOL) lost their R2 groups during the reaction, while ATM (the sole monobactam) maintained its initial mass.
(§2) Five micrograms of PDC-3 or PDC-88 was incubated at the indicated molar ratio (1:2 to 1:100 PDC:β-lactam) in a total volume of 20 µL in 1× PBS at pH 7.4 at room temperature for the duration of the indicated time points. Reactions were quenched with the addition of 10 µL acetonitrile and added to 1 mL of 0.1% formic acid in water.
(§3) Data were collected using a Waters Synapt G2-Si quadrupole time-of-flight (Q-TOF) mass spectrometer and Waters Acquity UPLC BEH C18 1.7 µm column (2.1 by 100 mm). MassLynx V4.1 was used to deconvolute protein peaks. The tune settings for each sample were as follows: capillary voltage of 3.5 kV, sampling cone voltage of 35 V, source offset of 35 V, source temperature of 100°C, desolvation temperature of 500°C, cone gas flow rate of 100 L/h, desolvation gas flow rate of 800 L/h, and nebulizer bar at 6.0. Mobile phase A was 0.1% formic acid in water. Mobile phase B was 0.1% formic acid in acetonitrile. The mass accuracy of this system is ±5 Da.

PDC-3 [5] = target: T2, PDC-3; test: Timed ESI-MS of acyl-enzyme formation, PDC-3; type: biochemical
Protocol: as §1, §2, §3

[6] = 60 min incubation, starting molar ratio 1:2
[7] = timed ESI-MS, 1 to 30 min (ATM to 60 min)

| Compound | increase of Tm upon addition of inhibitor (PDC-88 [1]; PDC-88) | Tm (PDC-88 [1]; PDC-88 with inhibitor, circular dichroism, PDC-88 alone 53°C) | decrease of FEP MIC of variants by inhibitor ([2]; inhibitor at constant 4 µg/mL with FEP) | restoration of FEP activity / susceptibility by inhibitor ([2]; inhibitor at constant 4 µg/mL) | increase of Tm upon addition of inhibitor (PDC-3 [3]; PDC-3) | Tm (PDC-3 [3]; PDC-3 with inhibitor, circular dichroism, PDC-3 alone 52°C) | hydrolysis by NDM-1 (NDM-1) | apo enzyme after incubation (PDC-88 [4]; [6]) | acyl-enzyme complex formation and deacylation (PDC-88 [4]; [7]) | apo enzyme after incubation (PDC-3 [5]; [6]) | acyl-enzyme complex formation and deacylation (PDC-3 [5]; [7]) |
| --- | --- | --- | --- | --- | --- | --- | --- | --- | --- | --- | --- |
| C[C@]1(Cn2ccnn2)[C@H](C(=O)O)N2C(=O)C[C@H]2S1(=O)=O [TZB, tazobactam] | 1 °C | 54 °C | two- to fourfold | failed to restore susceptibility for any of the variants | 1 °C | 53 °C | – | – | – | – | – |
| C[C@H]1[C@H](NC(=O)/C(=N\OC(C)(C)C(=O)O)c2csc(N)n2)C(=O)N1S(=O)(=O)O [ATM, aztreonam] | – | – | – | – | – | – | does not hydrolyze | no apo enzyme present | quickly formed acyl-enzyme complexes | less than 10% | quickly formed acyl-enzyme complexes |
